Assay results published in patent publication US20250381180A1, “METHODS OF TREATING OR PREVENTING OVERACTIVE BLADDER SYNDROME” (Purdue Pharma L.P., priority 2022, published 2025).
“Also recorded” adds a separate entry of the source.

Key:
conscious SCI rats = assay: Cystometric parameters in conscious spinal cord injury (SCI) rats; format: in vivo, rat; settings: i.g., Cpd (IA) 30 mg/kg, mirabegron 10 mg/kg
Procedure: Test substance effects were compared to those of the reference substance, the β3-adrenoceptor agonist mirabegron, marketed for overactive bladder.
• At W-5, spinal cord injury was performed at T8 level as described below. • Over W-5, rats were treated daily with gentamicin. • Over W-5 and W-4, bladder was emptied manually once a day. • From W-5 to W0, animals were weighed once per week. • At D-2 (W0), implantation of catheters was performed under isoflurane anaesthesia as described below. • At D0 (W0), cystometry was performed
Rats were anesthetized with isoflurane (3%). Body temperature was constantly maintained at 37° C. throughout the surgery by placing animals on a thermo-regulated hot plate. A laminectomy was performed and the spinal cord was sectioned with microscissors at T8 level. Care was taken to assure that the section was complete by verifying that a slight retraction of the two segments occurred. Then the muscle was sutured and the skin fixed with staples. The scar was cleaned by Vetedine. For the Sham group, the same surgery was performed without section of the spinal cord.
The urinary bladder was squeezed once a day for 14 days with a gentle massage of the abdomen until restoration of the micturition reflex. In addition, they were administered intramuscularly daily for one week with gentamicin (2 mg/mL, 0.2 ml/rat). Animals were euthanized if they reached humane endpoints: weight loss of greater than 20% of their body weight and/or abnormal behavioral changes indicating presence of pain and distress (prostration, self-mutilation, aggressiveness).
Rats were anesthetized with isoflurane (3%). Body temperature was constantly maintained at 37° C. throughout the surgery by placing animals on a thermo-regulated hot plate. A polyethylene catheter (0.58 and 0.96 mm of inner and outer diameters, respectively) was implanted in the bladder through the dome for intravesical pressure recording. Another catheter (0.58 and 0.96 mm of inner and outer diameters, respectively) was implanted in the stomach for intra-gastric administration. Catheters were exteriorized at the scapular level. After surgery, each rat was housed individually up to the end of the protocol with free access to food and water.
Animals were held under partial restraint in a restraining device. Saline was infused into the bladder at a constant flow rate of 2 or 6 mL/h for sham or SCI rats, respectively. After at least 45 min (3 complete micturition cycles corresponding to basal values), test substances were administered by intra-gastric route. Then, intravesical pressure was recorded for 90 min.
The following cystometric parameters were analyzed (see FIG. 10): • Amplitude of micturition (AM, mmHg). • Threshold pressure (ThP, mmHg). • Intercontraction interval (ICI, sec): time between basal pressure and ThP. ICI was not presented due to different infusion rate in sham and SCI rats. ICI was only analyzed to calculate the bladder capacity. • Bladder capacity (BC, mL) BC=ICI×infusion rate. • Amplitude of non voiding contractions (NVC, mmHg) • Frequency of NVC (number per min).
For each cystometric parameter and for each time period, the comparisons were performed as described below: • Basal values of each cystometric parameter of Sham/Vehicle and SCI/Vehicle groups were compared using unpaired student t test • Basal values of each cystometric parameter of all SCI groups were compared using one-way ANOVA or Kruskal-Wallis test • The 3 interval periods of 30 min post treatment of each cystometric parameter within the same group were compared to corresponding basal values using one-way ANOVA with repeated measures or Friedman test followed by Dunnett's or Dunn's post-test, respectively. • The 3 interval periods of 30 min post treatment of each cystometric parameter were compared between all SCI groups using one-way ANOVA or Kruskal Wallis test followed by Holm-Sidak's or Dunn's post-test versus Vehicle, respectively.

conscious BOO rats [1] = assay: Cystometric parameters in conscious bladder outlet obstruction (BOO) rats; format: in vivo, rat; settings: i.g.; for BC, effect versus basal: Cpd (IA) 30 mg/kg, mirabegron 10 mg/kg
Procedure: Test substance effects were compared to those of the reference substance, mirabegron, marketed for overactive bladder.
• At W-6, a partial ligature of the urethra was performed. • At W-6, during 3 consecutive days, rats were treated daily with gentamycin and Ketofen® The bladder was emptied manually once a day. • From W-6 to W-1 animals were monitored and weighed once per week. • At W0 (D-2), catheters were implanted under isoflurane anesthesia. • At D0, cystometry was performed.
Appropriate amount of Cpd (IA) was weighed and dissolved in vehicle to obtain the dosing solution with the target concentration of 3 mg/mL (as free base). […]
[…] Mirabegron (from Kemprotec) was prepared fresh on the day of administration at a final concentration of 2 mg/mL (free base form). Appropriate mass of mirabegron was weighed and dissolved in vehicle (0.5% MC) at room temperature.

conscious BOO rats [2] = settings: Gillespy et al., 2012; cited from earlier work

## Nc1nc(CC(=O)Nc2ccc(CCNC[C@H](O)c3ccccc3)cc2)cs1 [mirabegron, reference compound]
Conscious SCI rats
  AM (amplitude of micturition), effect versus basal: did not significantly modify
  AM (mmHg and % variation), effect versus vehicle: not significantly modified
  BC expressed in % variation from basal, effect versus vehicle: not significantly modified
  BC expressed in mL, effect versus vehicle: no significant difference
  NVC amplitude (mmHg or % variation), effect versus vehicle: not significantly modified
  NVC amplitude, effect versus basal: did not significantly modified
  NVC frequency (NVC/min and % variation), effect versus vehicle: not significantly modified
  NVC frequency, effect versus basal: significantly decreased NVC frequency for the 30-60 and 60-90 min interval periods; also recorded: slightly but significantly decreased
  ThP (mmHg and % variation), effect versus vehicle: not significantly modified
  ThP (threshold pressure), effect versus basal: significantly decreased ThP for the 60-90 min post-administration interval period
Conscious SCI rats; 30-min interval periods to 90 min
  BC (bladder capacity), effect versus basal: did not significantly modify
Conscious BOO rats [1]; 0-90 min entire period
  AM (mmHg or % variation), effect versus vehicle: not significantly modified
  AM, effect versus basal: did not significantly modify
  BC expressed in % variation from basal, effect versus vehicle: not significantly modified
  BC expressed in mL, effect versus vehicle: no significant difference
  NVC amplitude expressed in % variation from basal, effect versus vehicle: significantly reduced
  NVC amplitude expressed in mmHg, effect versus vehicle: not significantly modified
  NVC amplitude, effect versus basal: did not modify
  NVC frequency (NVC/min or % variation), effect versus vehicle: not significantly modified
  NVC frequency, effect versus basal: significantly decreased
  ThP expressed in % variation from basal, effect versus vehicle: no significant effect
  ThP expressed in mmHg, effect versus vehicle: not significantly modified
  ThP, effect versus basal: did not modify
  BC, effect versus basal: did not significantly modify
Conscious BOO rats [1]; 60-90 min interval period
  AM (mmHg or % variation), effect versus vehicle: no effect
  AM, effect versus basal: did not significantly modify
  BC expressed in % variation from basal, effect versus vehicle: no significant difference
  BC expressed in mL, effect versus vehicle: no significant difference
  NVC amplitude expressed in % variation from basal, effect versus vehicle: significantly decreased
  NVC amplitude expressed in mmHg, effect versus vehicle: not significantly modified
  NVC amplitude, effect versus basal: significantly reduced
  NVC frequency (NVC/min or % variation), effect versus vehicle: unaffected
  NVC frequency, effect versus basal: significantly decreased
  ThP expressed in % variation from basal, effect versus vehicle: significantly decreased
  ThP expressed in mmHg, effect versus vehicle: not significantly modified
  ThP, effect versus basal: without effect
  BC, effect versus basal: significantly increased
Conscious BOO rats [2]
  frequency of NVC: reduces
